From ChEMBL document CHEMBL3832050, “DailyMed|setid=da574350-be6b-49f3-b2ef-64da06af9b9d | PAMDRONATE DISODIUM - pamodronate disodium injection, solution|GENERAMEDIX, INC”

Columns and labels:
[1] = (§1) Mean pharmacokinetic parameters for Pamidronate after intravenous infusion of 30, 60 and 90 mg of Pamidronate disodium for 4 hours and 90 mg for 24 hours in cancer patients, 6 in each group.; format: ADME, organism-based; design: dose 90 mg, dose 30 mg, dose 60 mg, route iv; details: human, in vivo, dosed compound id 8, dosed compound name PAMIDRONATE DISODIUM, gender male and female, regimen Single dose, route iv, study dosing duration 4 hours
[2] = system: Homo sapiens; assay: as §1; format: ADME, organism-based; design: dose 90 mg, dose 30 mg, dose 60 mg, route iv; details: in vivo, iv, dosed compound id 8, dosed compound name PAMIDRONATE DISODIUM, gender male and female, regimen Single dose; for Excretion: tissue Urine
[3] = dose 60 mg, study dosing duration 4 hours, tissue Plasma
[4] = dose 90 mg, study dosing duration 4 hours, tissue Plasma
[5] = dose 90 mg, study dosing duration 24 hours, tissue Plasma

## NCCC(O)(P(=O)([O-])O)P(=O)([O-])O.[Na+].[Na+]
[1]; iv, at 30 mg, tissue Urine, read-out: Excretion
  dose excreted: 43.9%
[1]; dose 30 mg, tissue Plasma
  clearance: 136 mL/min
[1]; dose 30 mg, tissue Plasma, read-out: CL_renal
  CL renal: 58 mL/min
[2]; at 60 mg, study dosing duration 4 hours
  Excretion: 47.4%
[2]; at 90 mg, study dosing duration 4 hours
  Excretion: 45.3%
[2]; at 90 mg, study dosing duration 24 hours
  Excretion: 47.5%
[2]; [3]
  CL: 88 mL/min
  CL_renal: 42 mL/min
[2]; [4]
  CL: 103 mL/min
  CL_renal: 44 mL/min
[2]; [5]
  CL: 101 mL/min
  CL_renal: 52 mL/min
[2]; study dosing duration 24 hours, tissue Plasma
  Cmax: 1.38 µg/mL
